Test results published in ChEMBL document CHEMBL1201862, “PubChem BioAssay data set” (2004).
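Protocol summary: plate cells (96-well), add compound at 5 concentrations, incubate 48 h, interpolate endpoints linearly. Here, GI50 denotes the concentration required for 50% inhibition of growth.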 Active and inactive are the calls of the source. No stated cut-off is given here; in the data, active = GI50 up to about 1.1 µM and inactive = higher.

Columns and labels:
Assay in all cases: NCI anticancer screen, dose series, 48 h
SNB-19 = system: SNB-19
KM12 = system: KM12
OVCAR-8 = system: OVCAR-8
NCI-H23 = system: NCI-H23
RPMI-8226 = system: RPMI-8226
K562 = system: K562
MDA-N = system: MDA-N
RXF 393 = system: RXF 393
MOLT-4 = system: MOLT-4
BT-549 = system: BT-549
SK-MEL-2 = system: SK-MEL-2
OVCAR-4 = system: OVCAR-4
HCT-15 = system: HCT-15
SF-539 = system: SF-539
OVCAR-5 = system: OVCAR-5
HL-60 = system: HL-60
EKVX = system: EKVX
HT-29 = system: HT-29
PC-3 = system: PC-3
TK-10 = system: TK-10

| SMILES | GI50 (SNB-19) | GI50 (KM12) | GI50 (OVCAR-8) | GI50 (NCI-H23) | GI50 (RPMI-8226) | GI50 (K562) | GI50 (MDA-N) | GI50 (RXF 393) | GI50 (MOLT-4) | GI50 (BT-549) | GI50 (SK-MEL-2) | GI50 (OVCAR-4) | GI50 (HCT-15) [µM] | GI50 (SF-539) | GI50 (OVCAR-5) | GI50 (HL-60) | GI50 (EKVX) | GI50 (HT-29) | GI50 (PC-3) | GI50 (TK-10) |
| --- | --- | --- | --- | --- | --- | --- | --- | --- | --- | --- | --- | --- | --- | --- | --- | --- | --- | --- | --- | --- |
| CC(CN(C)C)C(=O)/C=C/c1ccc(Cl)c(Cl)c1 (stereo not given) | 5.43 µM (inactive) | 1.31 µM (inactive) | 1.52 µM (inactive) | 2.11 µM (inactive) | 0.338 µM (active) | 3.01 µM (inactive) | 2.07 µM (inactive) | 12.6 µM (inactive) | 2.67 µM (inactive) | 2.14 µM (inactive) | 2 µM (inactive) | 4.76 µM (inactive) | 1.59 | 1.46 µM (inactive) | 2.06 µM (inactive) | 1.62 µM (inactive) | 1.7 µM (inactive) | 1.67 µM (inactive) | 1.04 µM (active) | 2.02 µM (inactive) |
| CC1C(C#N)(C#N)C(C#N)=C(N)C1(C)[N+](=O)[O-] (stereo not given) | > 100 µM (inactive) | > 100 µM (inactive) | 65.8 µM (inactive) | > 100 µM (inactive) | 28.7 µM (inactive) | 29.9 µM (inactive) | 64.6 µM (inactive) | 43.1 µM (inactive) | 25.4 µM (inactive) | 42.1 µM (inactive) | > 100 µM (inactive) | 47.4 µM (inactive) | 33.7 | 31.5 µM (inactive) | > 100 µM (inactive) | 29.8 µM (inactive) | 21.5 µM (inactive) | 26.2 µM (inactive) | 66.4 µM (inactive) | > 100 µM (inactive) |
| CC/C=N\N1C(N)=C(C#N)C(C#N)(C#N)C1CC (stereo not given) | > 100 µM (inactive) | > 100 µM (inactive) | 44.9 µM (inactive) | > 100 µM (inactive) | 83 µM (inactive) | 52.7 µM (inactive) | 53.5 µM (inactive) | > 100 µM (inactive) | 39 µM (inactive) | > 100 µM (inactive) | > 100 µM (inactive) | 91.2 µM (inactive) | 54.2 | 26.2 µM (inactive) | > 100 µM (inactive) | 35.8 µM (inactive) | > 100 µM (inactive) | 28.8 µM (inactive) | > 100 µM (inactive) | > 100 µM (inactive) |
| C[C@H](CCC(=O)O)[C@H]1CC[C@@]2(C)[C@@H]3C(=O)C[C@H]4C(C)(C)[C@@H](O)CC[C@]4(C)[C@H]3C(=O)C[C@]12C | > 100 µM (inactive) | > 100 µM (inactive) | > 100 µM (inactive) | > 100 µM (inactive) | > 100 µM (inactive) | > 100 µM (inactive) | > 100 µM (inactive) | > 100 µM (inactive) | > 100 µM (inactive) | > 100 µM (inactive) | > 100 µM (inactive) | > 100 µM (inactive) | > 100 | > 100 µM (inactive) | > 100 µM (inactive) | 25.1 µM (inactive) | > 100 µM (inactive) | > 100 µM (inactive) | > 100 µM (inactive) | > 100 µM (inactive) |
